Laboratory results from publication PMC6770577, “TRPM6 N-Terminal CaM- and S100A1-Binding Domains” (International Journal of Molecular Sciences, 2019).

Biological target: T1, S100A1 (Homo sapiens, UniProt P23297)
T1 construct: made in house; host or cells: E. coli BL21
T1 sequence (P23297 1-94): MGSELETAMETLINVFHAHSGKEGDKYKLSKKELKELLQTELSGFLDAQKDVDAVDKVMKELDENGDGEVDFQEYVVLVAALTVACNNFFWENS
Test: Steady-state fluorescence anisotropy binding assay, FITC-labelled TRPM6np peptides titrated with S100A1
Settings: 1 μM N-terminally FITC-labelled peptide titrated with 100 μM S100A1, 50 mM Tris-HCl pH 7.5, 150 mM NaCl, 2 mM CaCl2, room temperature, at least five measurements, read-out: KD, equilibrium dissociation constant of the TRPM6np/S100A1 complex
Experimental: Steady-state fluorescence anisotropy experiments were performed at room temperature on a photon counting spectrometer PC1 (ISS Inc., Champaign, Illinois, USA). TRPM6npWT and its mutants were dissolved in a buffer containing 50 mM Tris-HCl (pH 7.5), 150 mM NaCl, and 2 mM CaCl2 for a final concentration of 1 μM. The samples were titrated in a 2-mm path cuvette with increasing aliquots of 100 μM CaM or S100A1. Fluorescence was excited at 495 nm; the intensity of emission in parallel (III) and perpendicular (I﬩) orientations to the direction of the polarised excitation was obtained at 520 nm by switching the emission polariser. The steady-state fluorescence anisotropy value (r) was calculated from the equation r = (III − I﬩) / (III + 2I﬩). […] Q represents the quantum yield ratio of the bound to the free peptide, calculated from fluorescence lifetimes (τ) according to equation Q = τbound/τfree. […]
Lifetimes were evaluated at room temperature in a drop placed on a coverslip and inserted into an inverted confocal microscope IX83 (Olympus, Tokyo, Japan) equipped with time-correlated single photon counting electronics and cooled GaAsP hybrid detectors (all PicoQuant, Berlin, Germany). […] fluorescence was excited at 485 nm by an LDH-485 picosecond laser (PicoQuant, Berlin, Germany). […]

Row | SMILES | Kd
1 | CC[C@H](C)[C@H](NC(=O)[C@H](CC(C)C)NC(=S)Nc1ccc2c(c1)C(=O)OC21c2ccc(O)cc2Oc2cc(O)ccc21)C(=O)NCC(=O)N[C@@H](CCCNC(=N)N)C(=O)N[C@@H](C)C(=O)N[C@@H](Cc1ccc(O)cc1)C(=O)N[C@@H](CCCNC(=N)N)C(=O)N[C@@H](CO)C(=O)N[C@@H](CC(N)=O)C(=O)N[C@@H](Cc1ccc(O)cc1)C(=O)N[C@H](C(=O)N[C@@H](C)C(=O)N[C@@H](C)C(=O)N[C@@H](Cc1c[nH]cn1)C(=O)N[C@@H](Cc1ccccc1)C(=O)N[C@@H](CCCNC(=N)N)C(=O)O)[C@@H](C)O [K532A/R531A] | 50.2 µM
2 | CC[C@H](C)[C@H](NC(=O)[C@H](CC(C)C)NC(=S)Nc1ccc2c(c1)C(=O)OC21c2ccc(O)cc2Oc2cc(O)ccc21)C(=O)NCC(=O)N[C@@H](CCCNC(=N)N)C(=O)N[C@@H](C)C(=O)N[C@@H](Cc1ccc(O)cc1)C(=O)N[C@@H](CCCNC(=N)N)C(=O)N[C@@H](CO)C(=O)N[C@@H](CC(N)=O)C(=O)N[C@@H](Cc1ccc(O)cc1)C(=O)N[C@H](C(=O)N[C@@H](CCCNC(=N)N)C(=O)N[C@@H](C)C(=O)N[C@@H](Cc1c[nH]cn1)C(=O)N[C@@H](Cc1ccccc1)C(=O)N[C@@H](CCCNC(=N)N)C(=O)O)[C@@H](C)O [K532A] | 24.8 µM
